{"source": "patent US20030232419A1", "about": "“Molecules interacting with CASL (MICAL) polynucleotides, polypeptides, and methods of using the same” (priority 2002, published 2003)", "molecules": {"B1": {"name": "Unc5, Drosophila (receptor, UniProt Q95TU8 31-1072, looked up)", "chain": "ELPQLDYGSLSASLEEDAIDPLTAMAPFANSLVTEESAQHKNNAELLGNSSEDENVRPQQGSSSSGLGSSGAAGGSGILLEEFNSGKLSPGEASNTLPIFLIEPESVFVVKNRPAVLKCKASHSLQVIFKCSGSSQPPPSTHETHVDPHTGVNMEEVTATIHRDLVDEFFGDGPFKCECHAWSSRGVVKSQAATVHIAYIRKSFNQSPTSLRLELGSRAELRCEPPGGFPEPKLTWHKNNAVITADSEPGITVSAGTLIFRQVALQHMANYSCSAENIAGRRVSDSAVLIVYVNGGWSTWSPWRECKCAGKPSQGRKRSRTCNNPMPLNGGAQCPGPQIQKSADCAACPEDTQIVSPDGFDISSSKRMARWSAWSDWSICSAECIQVRRRKCLTQGQTQISSEAEEAGDLLLGAPGVGMAALIAAAGVGAVGSPSEATGSSSDIIPGYGKSLCAGKDIQTAECRGEQCQIGKDDFDWTLYLGLAFITAVCFAFGTALICCARRGIRTNPHYNMARSVMDADYMPGVVEKKEMRMHIEASNMGYDYVNPGHRYLPGEHIMGMGIGCGGVTEHHYDVPNLSANYTNPIDHLSVDYLSETGESSTADTSNSTFDMNGKLSILNASKSSTYEMLGSAGGQLRLYGGELLLFVPEHAIGKHVKKHVSLLLLSDECSRVSCATESSILCSSVVHSAPRNYSFVKPVILKIPHCLVAPEQWHVHIYHADSEHDELSVNWRRAVSVGEETINTPMFVQLEATHVFIMTEQLGHFTVVAEPRIQQPSIKMKLLAFSQHTPPSNANCSLRIYVVKDFPNSRDICANVEAKLGGSFLGESQVFAFTLNSRNLNIRVRSADVEAAAPYEHAIPYQHILSNNSILHCEFSLRRQDQNSLCVDFGQGSEDDYYTFNIPAHSMSGSAEELASTTNTTISIDRQGNYVNESCVMDFVQLPHATKRLICGALDPPRADERDWRLLAKKLNTDRYIAYFATKASPTEQILNLWECRANSSPGSSSNSVSHTIMALLLTLKEMGRQDVLDIIVETIGPLWI", "notes": "Specificity control in the co-immunoprecipitation"}}, "key": {"[1]": {"tested_on": "Sema3A-mediated axonal repulsion of NGF-dependent DRG axons", "experiment": "in vitro rat DRG growth cone repulsion assay using Sema 3A-secreting 293 cells", "type": "cell-based", "details": "for attenuation of Sema 3A mediated axonal repulsion: inhibitors of other redox enzymes at concentrations previously shown to be effective in cell culture conditions", "method": "FIG. 4A provides a schematic diagram of the rat D E14/15 Rat DRG explants were co-cultured with 293 cells expressing Sema 3A and grown for 48 hours in the presence of an inhibitor or vehicle. Axonal outgrowth was determined by measuring proximal (P) and distal (D) axon lengths.\nDRG repulsion assays were performed as described (Messersmith et al., 1995).\n(§1) Scoring was done by splitting explants into quadrants and scoring all growth cones as either collapsed or not-collapsed."}, "[2]": {"target": "p-hydroxybenzoate hydroxylase (pHBH) (Pseudomonas aeruginosa, UniProt P20586)", "sequence (P20586 whole entry)": "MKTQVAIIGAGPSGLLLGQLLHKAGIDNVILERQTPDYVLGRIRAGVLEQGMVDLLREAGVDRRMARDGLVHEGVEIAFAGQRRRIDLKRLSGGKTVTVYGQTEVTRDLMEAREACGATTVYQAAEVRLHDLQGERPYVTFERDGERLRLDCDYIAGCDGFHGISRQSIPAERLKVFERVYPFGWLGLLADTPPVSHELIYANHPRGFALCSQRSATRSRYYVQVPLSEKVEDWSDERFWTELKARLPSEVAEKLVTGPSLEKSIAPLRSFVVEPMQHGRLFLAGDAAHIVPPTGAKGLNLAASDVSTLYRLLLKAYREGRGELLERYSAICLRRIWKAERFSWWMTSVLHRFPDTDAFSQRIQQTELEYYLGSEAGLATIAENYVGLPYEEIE", "details": "cited from earlier work"}, "telomerase": {"target": "telomerase (Homo sapiens, UniProt O14746)", "sequence (O14746 whole entry)": "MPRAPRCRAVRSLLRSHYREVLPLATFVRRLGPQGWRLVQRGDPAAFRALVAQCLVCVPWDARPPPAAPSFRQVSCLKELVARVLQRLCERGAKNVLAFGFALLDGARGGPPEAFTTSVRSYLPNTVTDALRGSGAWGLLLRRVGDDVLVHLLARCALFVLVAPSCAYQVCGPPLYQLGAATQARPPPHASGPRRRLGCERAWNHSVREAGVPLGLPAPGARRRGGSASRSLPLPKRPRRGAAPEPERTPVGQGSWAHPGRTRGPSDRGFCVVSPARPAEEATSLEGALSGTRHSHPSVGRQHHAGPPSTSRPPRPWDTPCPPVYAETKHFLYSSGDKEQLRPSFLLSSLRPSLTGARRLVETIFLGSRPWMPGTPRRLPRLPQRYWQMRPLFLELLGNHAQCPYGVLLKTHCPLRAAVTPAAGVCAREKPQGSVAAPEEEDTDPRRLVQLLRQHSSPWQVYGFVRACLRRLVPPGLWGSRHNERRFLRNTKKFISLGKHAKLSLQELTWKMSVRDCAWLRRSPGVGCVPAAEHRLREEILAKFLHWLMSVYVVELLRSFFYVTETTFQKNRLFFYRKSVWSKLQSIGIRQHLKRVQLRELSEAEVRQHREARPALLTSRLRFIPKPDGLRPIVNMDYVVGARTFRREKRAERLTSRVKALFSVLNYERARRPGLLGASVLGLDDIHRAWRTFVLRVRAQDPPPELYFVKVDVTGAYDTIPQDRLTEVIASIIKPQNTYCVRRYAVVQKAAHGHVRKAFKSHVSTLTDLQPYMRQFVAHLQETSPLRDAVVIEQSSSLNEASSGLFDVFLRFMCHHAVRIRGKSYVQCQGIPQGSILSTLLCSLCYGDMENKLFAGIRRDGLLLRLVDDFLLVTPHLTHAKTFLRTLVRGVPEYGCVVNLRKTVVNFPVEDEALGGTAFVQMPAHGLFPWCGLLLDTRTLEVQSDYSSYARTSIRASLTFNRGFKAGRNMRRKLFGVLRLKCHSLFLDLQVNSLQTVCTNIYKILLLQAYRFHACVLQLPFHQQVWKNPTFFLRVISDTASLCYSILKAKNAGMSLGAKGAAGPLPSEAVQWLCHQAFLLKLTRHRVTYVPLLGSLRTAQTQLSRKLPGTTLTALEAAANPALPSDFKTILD", "details": "similar concentrations of EGCG; cited from earlier work"}, "phenol sulfotransferase": {"tested_on": "phenol sulfotransferase", "details": "similar concentrations of EGCG; cited from earlier work"}, "[3]": {"tested_on": "Sema3A-mediated growth cone collapse in NGF-dependent DRG neurons", "experiment": "DRG growth cone collapse assay with AP-Sema3A", "type": "cell-based, rat", "details": "25 mM EGCG, 3 hours in EGCG prior to 1 hour 1 nM AP-Sema3A", "from_the_text": "FIG. 4C provides a graph that quantitates the effects of oxidation/reduction enzyme inhibitors on Sema 3A repulsion scored as the ratio of the axon lengths on the proximal and distal sides of the explant (P/D ratio), and on Sema3A-mediated growth cone collapse indicated as % collapsed growth cones (gray). In repulsion assays, outgrowth of DRG axons on the side distal to the 293 cells appeared normal. […] For Rote, n=4, however only 4 out of 12 explants survived. (**=p<0.0001; *=p<0.001; paired t-test). Scale bar=[…].\nas §1"}, "[4]": {"target": "T1, NADPH-cytochrome P450 reductase (Homo sapiens, UniProt P16435)", "T1 sequence (P16435 1-677)": "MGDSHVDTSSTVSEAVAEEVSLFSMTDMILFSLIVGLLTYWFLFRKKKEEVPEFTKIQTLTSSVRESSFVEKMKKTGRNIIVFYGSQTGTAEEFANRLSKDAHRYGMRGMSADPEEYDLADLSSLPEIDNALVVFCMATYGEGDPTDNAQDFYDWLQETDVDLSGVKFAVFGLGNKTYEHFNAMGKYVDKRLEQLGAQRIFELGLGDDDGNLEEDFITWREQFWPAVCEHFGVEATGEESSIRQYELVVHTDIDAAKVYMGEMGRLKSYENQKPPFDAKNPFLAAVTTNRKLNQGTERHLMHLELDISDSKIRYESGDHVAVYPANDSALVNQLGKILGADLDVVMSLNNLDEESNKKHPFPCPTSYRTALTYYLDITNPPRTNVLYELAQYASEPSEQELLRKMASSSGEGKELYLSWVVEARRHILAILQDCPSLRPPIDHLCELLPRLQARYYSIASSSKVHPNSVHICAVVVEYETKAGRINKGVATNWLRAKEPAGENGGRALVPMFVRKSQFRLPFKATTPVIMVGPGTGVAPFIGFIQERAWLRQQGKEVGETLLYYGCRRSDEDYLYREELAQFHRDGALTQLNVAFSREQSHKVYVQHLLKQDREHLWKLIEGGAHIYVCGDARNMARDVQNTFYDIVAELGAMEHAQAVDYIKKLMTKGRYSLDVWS", "details": "similar concentrations of EGCG; cited from earlier work"}, "[5]": {"target": "matrix metalloproteinase MMP-9 (Homo sapiens, UniProt P14780)", "sequence (P14780 94-707)": "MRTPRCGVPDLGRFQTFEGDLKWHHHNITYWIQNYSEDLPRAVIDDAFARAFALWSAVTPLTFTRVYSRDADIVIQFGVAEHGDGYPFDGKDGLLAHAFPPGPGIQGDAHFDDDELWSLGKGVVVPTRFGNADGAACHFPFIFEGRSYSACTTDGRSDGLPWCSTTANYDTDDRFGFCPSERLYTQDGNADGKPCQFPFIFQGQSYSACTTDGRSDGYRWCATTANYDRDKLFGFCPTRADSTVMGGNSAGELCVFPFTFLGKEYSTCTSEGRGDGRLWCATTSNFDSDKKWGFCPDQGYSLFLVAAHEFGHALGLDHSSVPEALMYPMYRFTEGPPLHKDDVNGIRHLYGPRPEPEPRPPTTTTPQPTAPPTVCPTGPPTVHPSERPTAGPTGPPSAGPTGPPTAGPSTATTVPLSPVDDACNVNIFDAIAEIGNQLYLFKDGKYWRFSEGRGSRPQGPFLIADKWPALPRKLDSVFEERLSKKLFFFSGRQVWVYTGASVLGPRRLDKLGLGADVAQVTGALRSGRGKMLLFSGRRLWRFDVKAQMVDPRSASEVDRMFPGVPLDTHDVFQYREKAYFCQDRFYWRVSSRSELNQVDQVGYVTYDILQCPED", "details": "similar concentrations of EGCG; cited from earlier work"}, "steroid 5a-reductase": {"tested_on": "steroid 5a-reductase", "details": "similar concentrations of EGCG; cited from earlier work"}, "[6]": {"target": "T2, Drosophila MICAL (endogenous protein in embryo lysates) (Drosophila, UniProt Q86BA1 1-4723)", "T2 construct": "also called \"large\" MICAL isoform; long isoform", "experiment": "co-immunoprecipitation from embryo lysates with MICAL-CT antibodies, Western blot"}}}
{"molecule": "C=C(C)[C@H]1Cc2c(ccc3c2O[C@@H]2COc4cc(OC)c(OC)cc4[C@@H]2C3=O)O1", "note": "[rotenone]", "values": [{"measurement": "attenuation of Sema 3A mediated axonal repulsion", "setting": "[1]", "result": "No attenuation"}, {"measurement": "explants survived", "setting": "[1]; repulsion assay, n=4", "result": "4 out of 12"}]}
{"molecule": "Oc1ncnc2[nH]ncc12", "note": "[allopurinol]", "values": [{"measurement": "attenuation of Sema 3A mediated axonal repulsion", "setting": "[1]", "result": "No attenuation"}]}
{"molecule": "(−)-epigallocatechin gallate [EGCG]", "values": [{"measurement": "inhibition of p-hydroxybenzoate hydroxylase (pHBH)", "setting": "[2]", "result": "potent and selective inhibitors"}, {"measurement": "Sema3A repulsion", "setting": "[1]; 25 mM EGCG added to the growth media, E14/15 rat DRG explants co-cultured with Sema 3A 293 cells for 48 hours", "result": "completely neutralized"}, {"measurement": "inhibition of telomerase", "setting": "telomerase", "result": "inhibit"}, {"measurement": "inhibition of phenol sulfotransferase", "setting": "phenol sulfotransferase", "result": "inhibit"}, {"measurement": "Sema3A-mediated growth cone collapse", "setting": "[3]", "result": "dramatically abrogates"}, {"measurement": "inhibition of NADPH-cytochrome P450 reductase", "setting": "[4]", "result": "inhibit"}, {"measurement": "inhibition of MMP-9", "setting": "[5]", "result": "inhibit"}, {"measurement": "inhibition of steroid 5a-reductase", "setting": "steroid 5a-reductase", "result": "inhibit"}]}
{"molecule": "B1", "values": [{"measurement": "binding result", "setting": "[6]", "result": "no binding"}]}
